# Assay results: US8580829B2 (Boehringer Ingelheim International GmbH, priority 2010, dated 2013)
# How the values were obtained:
# [1] = biological target: T1, recombinant human FLAP protein (Homo sapiens, UniProt P20292); assay: FLAP binding assay (Scintillation Proximity Assay, displacement of [125I]L-691,831); conditions: recombinant human FLAP membranes, [125I]L-691,831 probe; read-out: FLAP SPA IC50
# T1 construct: made in house; host or cells: Sf9 insect cells (100,000 x g membrane fraction)
# T1 sequence (P20292 1-161): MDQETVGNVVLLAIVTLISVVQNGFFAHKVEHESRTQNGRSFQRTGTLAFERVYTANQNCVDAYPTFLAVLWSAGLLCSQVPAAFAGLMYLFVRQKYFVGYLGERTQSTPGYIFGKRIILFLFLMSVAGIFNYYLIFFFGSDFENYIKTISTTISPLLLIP
# In short: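 WGA scintillation proximity beads were stirred 1 h with 5 μg of FLAP-containing membrane protein. The membranes came from baculovirus Sf9 cells, Dounce-lysed and spun to a 100,000×g pellet in buffer at pH 7.5.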
# [2] = test system: synthesis of LTB4 in human whole blood; assay: human whole blood LTB4 production inhibition assay; type: cell-based; conditions: Homo sapiens, heparinized human whole blood, calcimycin 20 μM; read-out: hWB LTB4 IC50
# In short: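 LTB4 levels in plasma were measured by antibody-based HTRF after heparinized human whole blood, pretreated with compound (15 min, 37° C), was challenged with 20 μM calcimycin for 30 min at 37° C.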
IC50 [1] [nM],IC50 [2] [nM],Compound
98,1300,"NC(=O)c1nc(C2(c3ccc(-c4cnc(N)nc4)cc3)CCC2)no1 [Example 177, 3-{1-[4-(2-Amino-pyrimidin-5-yl)-phenyl]-cyclobutyl}-1,2,4-oxadiazole-5-carboxylic acid amide]"
1.5,66,"CN(C)C(=O)n1cc(-c2nc(C3(c4ccc(-c5cnc(N)nc5)cc4)CCC3)no2)cn1 [Example 136, 4-(3-{1-[4-(2-Amino-pyrimidin-5-yl)-phenyl]-cyclobutyl}-1,2,4-oxadiazol-5-yl)-pyrazole-1-carboxylic acid dimethylamide]"
3.7,660,"COc1cccc(-c2nc(C3(c4ccc(-c5cnc(N)nc5)cc4)CCC3)no2)c1 [Example 49, 5-(4-{1-[5-(3-Methoxy-phenyl)-1,2,4-oxadiazol-3-yl]-cyclobutyl}-phenyl)-pyrimidin-2-ylamine]"
3.9,190,"COCCNC(=O)c1ccc(-c2nc(C3(c4ccc(-c5cnc(N)nc5)cc4)CCC3)no2)cn1 [Example 76, 5-(3-{1-[4-(2-Amino-pyrimidin-5-yl)-phenyl]-cyclobutyl}-1,2,4-oxadiazol-5-yl)-pyridine-2-carboxylic acid (2-methoxy-ethyl)-amide]"
2.9,24,"Nc1cnc(-c2ccc(C3(c4noc(-c5cnn(C6COC6)c5)n4)CCC3)cc2)cn1 [Example 299, 5-(4-{1-[5-(1-Oxetan-3-yl-1H-pyrazol-4-yl)-[1,2,4]oxadiazol-3-yl]-cyclobutyl}-phenyl)-pyrazin-2-ylamine; compound with trifluoro-acetic acid]"
2.6,140,"Cc1cnc(-c2nc(C3(c4ccc(-c5cnc(N)nc5)cc4)CCC3)no2)cn1 [Example 22, 5-(4-{1-[5-(5-Methyl-pyrazin-2-yl)-1,2,4-oxadiazol-3-yl]-cyclobutyl}-phenyl)-pyrimidin-2-ylamine]"
40,790,"CN(C)C(=O)Cn1cccc(-c2nc(C3(c4ccc(-c5cnc(N)nc5)cc4)CCC3)no2)c1=O [Example 119, 2-[3-(3-{1-[4-(2-Amino-pyrimidin-5-yl)-phenyl]-cyclobutyl}-1,2,4-oxadiazol-5-yl)-2-oxo-2H-pyridin-1-yl]-N,N-dimethyl-acetamide]"
5.6,230,"COC1CN(C(=O)Cn2cc(-c3nc(C4(c5ccc(-c6cnc(N)nc6)cc5)CCC4)no3)cn2)C1 [Example 236, 2-[4-(3-{1-[4-(2-Amino-pyrimidin-5-yl)-phenyl]-cyclobutyl}-[1,2,4]oxadiazol-5-yl)-pyrazol-1-yl]-1-(3-methoxy-azetidin-1-yl)-ethanone]"
8.1,79,"N#CC1CCN(CCn2cc(-c3nc(C4(c5ccc(-c6cnc(N)nc6)cc5)CCC4)no3)cn2)CC1 [Example 246, 1-{2-[4-(3-{1-[4-(2-Amino-pyrimidin-5-yl)-phenyl]-cyclobutyl}-[1,2,4]oxadiazol-5-yl)-pyrazol-1-yl]-ethyl}-piperidine-4-carbonitrile]"
3.3,140,"Nc1ncc(-c2ccc(C3(c4noc(-c5ccc(NCCN6CCOCC6)nn5)n4)CCC3)cc2)cn1 [Example 115, [6-(3-{1-[4-(2-Amino-pyrimidin-5-yl)-phenyl]-cyclobutyl}-1,2,4-oxadiazol-5-yl)-pyridazin-3-yl]-(2-morpholin-4-yl-ethyl)-amine]"
1.8,45,"Cn1nccc1-c1nc(C2(c3ccc(-c4cnc(N)nc4)cc3)CCC2)no1 [Example 57, 5-(4-{1-[5-(2-methyl-2H-pyrazol-3-yl)-1,2,4-oxadiazol-3-yl]-cyclobutyl}-phenyl)-pyrimidin-2-ylamine]"
3.7,340,"Nc1cc(-c2nc(C3(c4ccc(-c5cnc(N)nc5)cc4)CCC3)no2)ccn1 [Example 37, 5-(4-{1-[5-(2-Amino-pyridin-4-yl)-1,2,4-oxadiazol-3-yl]-cyclobutyl}-phenyl)-pyrimidin-2-ylamine]"
2.4,50,"Cn1ncc(-c2nc(C3(c4ccc(-c5cnc(N)nc5)cc4)CCC3)no2)c1N [Example 7, 5-(4-{1-[5-(5-Amino-1-methyl-1H-pyrazol-4-yl)-1,2,4-oxadiazol-3-yl]-cyclobutyl}-phenyl)-pyrimidin-2-ylamine]"
0.85,73,"Nc1ncc(-c2ccc(C3(c4noc(-c5ccc(NCCO)nc5)n4)CCC3)cc2)cn1 [Example 180, 2-[5-(3-{1-[4-(2-Amino-pyrimidin-5-yl)-phenyl]-cyclobutyl}-1,2,4-oxadiazol-5-yl)-pyridin-2-ylamino]-ethanol]"
16,190,"Nc1ncc(-c2ccc(C3(c4noc(-c5cn(C6COC6)cn5)n4)CCC3)cc2)cn1 [Example 263, 5-(4-{1-[5-(1-Oxetan-3-yl-1H-imidazol-4-yl)-[1,2,4]oxadiazol-3-yl]-cyclobutyl}-phenyl)-pyrimidin-2-ylamine]"
16,510,"CC(C)(O)Cn1cncc1-c1nc(C2(c3ccc(-c4cnc(N)nc4)cc3)CCC2)no1 [Example 298, 1-[5-(3-{1-[4-(2-Amino-pyrimidin-5-yl)-phenyl]-cyclobutyl}-[1,2,4]oxadiazol-5-yl)-imidazol-1-yl]-2-methyl-propan-2-ol]"
2.4,> 5000,"Nc1ncc(-c2ccc(C3(c4noc(-c5ccc(S(N)(=O)=O)cc5)n4)CCC3)cc2)cn1 [Example 38, 4-(3-{1-[4-(2-Amino-pyrimidin-5-yl)-phenyl]-cyclobutyl}-1,2,4-oxadiazol-5-yl)-benzenesulfonamide]"
2.1,26,"Cn1cc(-c2nc(C3(c4ccc(-c5ccc(N)nc5)cc4)CCC3)no2)cn1 [Example 215, 5-(4-{1-[5-(1-Methyl-1H-pyrazol-4-yl)-[1,2,4]oxadiazol-3-yl]-cyclobutyl}-phenyl)-pyridin-2-ylamine]"
4.4,68,"Nc1ncc(-c2ccc(C3(c4noc(-c5cnn(CC(=O)NCC(F)(F)F)c5)n4)CCC3)cc2)cn1 [Example 140, 2-[4-(3-{1-[4-(2-Amino-pyrimidin-5-yl)-phenyl]-cyclobutyl}-1,2,4-oxadiazol-5-yl)-pyrazol-yl]-N-(2,2,2-trifluoro-ethyl)-acetamide]"
8.6,220,"CC(=O)N1CCN(CCn2cc(-c3nc(C4(c5ccc(-c6cnc(N)nc6)cc5)CCC4)no3)cn2)CC1 [Example 250, 1-(4-{2-[4-(3-{1-[4-(2-Amino-pyrimidin-5-yl)-phenyl]-cyclobutyl}-[1,2,4]oxadiazol-5-yl)-pyrazol-1-yl]-ethyl}-piperazin-1-yl)-ethanone]"
2.4,200,Nc1ncc(-c2ccc(C3(c4noc(-c5cscn5)n4)CCC3)cc2)cn1 [Example 71]
2.1,180,"NC(=O)c1ccc(-c2nc(C3(c4ccc(-c5cnc(N)nc5)cc4)CCC3)no2)cn1 [Example 17, 5-(3-{1-[4-(2-Amino-pyrimidin-5-yl)-phenyl]-cyclobutyl}-1,2,4-oxadiazol-5-yl)-pyridine-2-carboxylic acid amide]"
15,120,"Cn1cnc(-c2nc(C3(c4ccc(-c5ccc(N)nc5)cc4)CCC3)no2)c1 [Example 305, 5-(4-{1-[5-(1-Methyl-1H-imidazol-4-yl)-[1,2,4]oxadiazol-3-yl]-cyclobutyl}-phenyl)-pyridin-2-ylamine]"
6,140,"CN(C)C(=O)Cn1cc(-c2nc(C3(c4ccc(-c5ccc(N)nc5)cc4)CCC3)no2)cn1 [Example 301, 2-[4-(3-{1-[4-(6-Amino-pyridin-3-yl)-phenyl]-cyclobutyl}-[1,2,4]oxadiazol-5-yl)-pyrazol-1-yl]-N,N-dimethyl-acetamide]"
2.1,24,"CNc1cnc(-c2nc(C3(c4ccc(-c5cnc(N)nc5)cc4)CCC3)no2)cn1 [Example 196, 5-(4-{1-[5-(5-Methylamino-pyrazin-2-yl)-1,2,4-oxadiazol-3-yl]-cyclobutyl}-phenyl)-pyrimidin-2-ylamine]"
6,340,"Nc1ncc(-c2ccc(C3(c4noc(-c5cncnc5)n4)CCC3)cc2)cn1 [Example 159, 5-{4-[1-(5-Pyrimidin-5-yl-1,2,4-oxadiazol-3-yl)-cyclobutyl]-phenyl}-pyrimidin-2-ylamine]"
8.4,690,"N#Cc1ccc(-c2nc(C3(c4ccc(-c5cnc(N)nc5)cc4)CCC3)no2)cc1 [Example 42, 4-(3-{1-[4-(2-Amino-pyrimidin-5-yl)-phenyl]-cyclobutyl}-1,2,4-oxadiazol-5-yl)-benzonitrile]"
33,1700,"Nc1ncc(-c2ccc(C3(c4noc(-c5ccncc5)n4)CCOCC3)cc2)cn1 [Example 147, 5-{4-[4-(5-Pyridin-4-yl-1,2,4-oxadiazol-3-yl)-tetrahydro-pyran-4-yl]-phenyl}-pyrimidin-2-ylamine]"
2.8,64,"Nc1ncc(-c2ccc(C3(c4noc(-c5cnn(CC(=O)NCC6CCCO6)c5)n4)CCC3)cc2)cn1 (stereo not shown) [Example 224, 2-[4-(3-{1-[4-(2-Amino-pyrimidin-5-yl)-phenyl]-cyclobutyl}-[1,2,4]oxadiazol-5-yl)-pyrazol-1-yl]-N-(tetrahydro-furan-2-ylmethyl)-acetamide]"
